What was measured:
[1] = target: T1, cIAP-1 BIR-3 (Homo sapiens, UniProt Q13490); test: Fluorescence polarization binding to cIAP-1 BIR-3 with labeled peptide AbuRPF-K(5-Fam)-NH2; conditions: cIAP-1 BIR-3, 40 nM BIR3, 5 nM labeled peptide, 15 min RT, pH 7.5; read-out: cIAP1, nM (binding affinity KD, as range)
T1 construct: 40 nM of the respective IAP BIR3
Method: (§1) The binding affinities of the compounds are reported as a KD value (μM). Briefly, various concentrations of test peptides were mixed with 5 nM of the fluorescently labeled peptide (i.e., a mutated N-terminal Smac peptide-AbuRPF-K(5-Fam)-NH2) and 40 nM of the respective IAP BIR3 for 15 min at RT in […] of 0.1M Potassium Phosphate buffer, pH 7.5 containing […] bovine g-globulin. Following incubation, the polarization values (mP) were measured on a Victor2V™ (available from PerkinElmer® Life Sciences) using a 485 nm excitation filter and a 520 nm emission filter. The reported binding affinities (KD values) are supplied as ranges (A=<0.1 μM, B=0.1 μM to 1 μM, C=>1 μM to 10 μM, D=>10 μM).

[2] = target: T2, XIAP BIR-3 (Homo sapiens, UniProt P98170); test: Fluorescence polarization binding to XIAP BIR-3 with labeled peptide AbuRPF-K(5-Fam)-NH2; conditions: XIAP BIR-3, 40 nM BIR3, 5 nM labeled peptide, 15 min RT, pH 7.5; read-out: XIAP, nM (binding affinity KD, as range)
T2 construct: 40 nM of the respective IAP BIR3
T2 sequence (P98170 241-356 limits assumed): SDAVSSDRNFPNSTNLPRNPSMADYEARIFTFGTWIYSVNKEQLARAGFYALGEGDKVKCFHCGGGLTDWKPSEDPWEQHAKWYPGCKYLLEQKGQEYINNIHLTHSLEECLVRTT
Method: as §1

[3] = system: SK-OV-3 cells; test: MTT cell growth inhibition assay in ovarian cancer cell line SK-OV-3; type: cell-based; conditions: Homo sapiens, 72 hrs incubation, read-out: SKOV3, nM (CC50, concentration giving 50% cell survival, as range)
Method: Compounds of the invention also were tested for their ability to inhibit the growth of an ovarian cancer cell line, SK-OV-3. A known assay previously used for measuring cell growth (as described in Hansen, M. B., Nielsen, S. E., and Berg, K. (1989) J. Immunol. Methods 119, 203-210 and incorporated herein by reference in its entirety) was used. Briefly, SK-OV-3 cells are seeded in 96-well plates in McCoy's medium containing 10% fetal bovine serum albumin (5,000 per well) and incubated overnight at 37° C. The next day, test compounds are added at various concentrations (0.003-10 μM) and the plates are incubated at 37° C. for an additional 72 hrs. This incubation time was considered to be optimal for measuring inhibitory effects of the different compounds tested. 50 microliters of 5 mg/mL MTT reagent is added to each well and the plates are incubated at 37° C. for another three (3) hours. At the end of the three (3) hour incubation period, 50 microliters of DMSO is added to each well to dissolve cells and the optical density (OD) of the wells is measured with a microplate reader (Victor^2 1420™, Wallac, Finland) at 535 nm. Cell survival (CS) was calculated using the following equation: CS=(OD treated well/mean OD control wells)×100%.
The CC50 (reported in the following tables), is defined as the drug concentration that results in 50% cell survival (CS), and is derived by calculating the point where the dose-response curve crosses the 50% CS point using GraphPad Prism® graphing software. The reported CC50 values are supplied as ranges (A=<0.1 μM, B=0.1 μM to 1 μM, C=>1 μM to 10 μM, D=>10 μM).

T1 sequence (Q13490 253-363 limits assumed): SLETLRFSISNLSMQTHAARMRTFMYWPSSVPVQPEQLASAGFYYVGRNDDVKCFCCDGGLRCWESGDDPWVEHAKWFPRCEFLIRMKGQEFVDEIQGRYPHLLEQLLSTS

Compound | Kd [1] | Kd [2] | CC50 [3]
CN[C@@H](C)C(=O)N[C@H](C(=O)N1CC[C@@H]2[C@H]1[C@@H](C(=O)Nc1cnc3ccccc3c1)CN2S(C)(=O)=O)C(C)(C)C [Example 51, 4-[3,3-Dimethyl-2-(2-methylamino-propionylamino)-butyryl]-1-methanesulfonyl-octahydro-pyrrolo[3,2-b]pyrrole-3-carboxylic acid quinolin-3-ylamide] | < 100 nM | 100 to 1000 nM | < 100 nM
CNC(=O)N1C[C@H](C(=O)Nc2cccc3ccccc23)[C@@H]2[C@H]1CCN2C(=O)[C@@H](NC(=O)[C@H](C)NC)C(C)(C)C [Example 42, 4-[3,3-Dimethyl-2-(2-methylamino-propionylamino)-butyryl]-hexahydro-pyrrolo[3,2-b]pyrrole-1,3-dicarboxylic acid 1-methylamide 3-naphthalen-1-ylamide] | < 100 nM | < 100 nM | < 100 nM
CN[C@@H](C)C(=O)N[C@H](C(=O)N1CC[C@@H]2[C@H]1[C@@H](C(=O)Nc1cccc3ccccc13)CN2S(C)(=O)=O)C1CCCCC1 [Example 17, 4-[2-Cyclohexyl-2-(2-methylamino-propionylamino)-acetyl]-1-methanesulfonyl-octahydro-pyrrolo[3,2-b]pyrrole-3-carboxylic acid naphthalen-1-ylamide] | < 100 nM | < 100 nM | < 100 nM
CN[C@@H](C)C(=O)N[C@H](C(=O)N1CC[C@@H]2[C@H]1[C@@H](C(=O)N[C@H]1CCCc3ccccc31)CN2S(C)(=O)=O)C(C)(C)C [Example 23, 4-[3,3-Dimethyl-2-(2-methylamino-propionylamino)-butyryl]-1-methanesulfonyl-octahydro-pyrrolo[3,2-b]pyrrole-3-carboxylic acid (1,2,3,4-tetrahydro-naphthalen-1-yl)-amide] | < 100 nM | < 100 nM | 100 to 1000 nM
CN[C@@H](C)C(=O)N[C@H](C(=O)N1CC[C@@H]2[C@H]1[C@@H](C(=O)N[C@@H]1CCCc3ccccc31)CN2C(C)=O)C(C)(C)C [Example 34, 1-Acetyl-4-[3,3-dimethyl-2-(2-methylamino-propionylamino)-butyryl]-octahydro-pyrrolo[3,2-b]pyrrole-3-carboxylic acid (1,2,3,4-tetrahydro-naphthalen-1-yl)-amide] | < 100 nM | < 100 nM | < 100 nM
CN[C@@H](C)C(=O)N[C@H](C(=O)N1CC[C@@H]2[C@H]1[C@@H](C(=O)N[C@@H](C)c1ccccc1)CN2S(C)(=O)=O)C1CCCCC1 [Example 11, 4-[2-Cyclohexyl-2-(2-methylamino-propionylamino)-acetyl]-1-methanesulfonyl-octahydro-pyrrolo[3,2-b]pyrrole-3-carboxylic acid (1-phenyl-ethyl)-amide] | < 100 nM | < 100 nM | 100 to 1000 nM
CN[C@@H](C)C(=O)N[C@H](C(=O)N1CC[C@@H]2[C@H]1[C@@H](C(=O)Nc1ccc3ncccc3c1)CN2S(C)(=O)=O)C(C)(C)C [Example 50, 4-[3,3-Dimethyl-2-(2-methylamino-propionylamino)-butyryl]-1-methanesulfonyl-octahydro-pyrrolo[3,2-b]pyrrole-3-carboxylic acid quinolin-6-ylamide] | < 100 nM | 100 to 1000 nM | < 100 nM
CN[C@@H](C)C(=O)N[C@H](C(=O)N1CC[C@@H]2[C@H]1[C@@H](C(=O)Nc1cccc3cnccc13)CN2S(C)(=O)=O)C(C)(C)C [Example 44, 4-[3,3-Dimethyl-2-(2-methylamino-propionylamino)-butyryl]-1-methanesulfonyl-octahydro-pyrrolo[3,2-b]pyrrole-3-carboxylic acid isoquinolin-5-ylamide] | < 100 nM | 100 to 1000 nM | < 100 nM
CN[C@@H](C)C(=O)N[C@H](C(=O)N1CC[C@@H]2[C@H]1[C@@H](C(=O)Nc1cccc3ccccc13)CN2C(C)=O)C(C)(C)C [Example 37, 1-Acetyl-4-[3,3-dimethyl-2-(2-methylamino-propionylamino)-butyryl]-octahydro-pyrrolo[3,2-b]pyrrole-3-carboxylic acid naphthalen-1-ylamide] | < 100 nM | < 100 nM | < 100 nM
CN[C@@H](C)C(=O)N[C@H](C(=O)N1CC[C@@H]2[C@H]1[C@@H](C(=O)N[C@@H]1CCCc3ccccc31)CN2S(C)(=O)=O)C(C)(C)C [Example 27, 4-[3,3-Dimethyl-2-(2-methylamino-propionylamino)-butyryl]-1-methanesulfonyl-octahydro-pyrrolo[3,2-b]pyrrole-3-carboxylic acid (1,2,3,4-tetrahydro-naphthalen-1-yl)-amide] | < 100 nM | < 100 nM | < 100 nM
CN[C@@H](C)C(=O)N[C@H](C(=O)N1CC[C@@H]2[C@H]1[C@@H](C(=O)NCc1ccc(F)cc1)CN2S(C)(=O)=O)C(C)(C)C [Example 21, 4-[3,3-Dimethyl-2-(2-methylamino-propionylamino)-butyryl]-1-methanesulfonyl-octahydro-pyrrolo[3,2-b]pyrrole-3-carboxylic acid 4-fluoro-benzylamide] | < 100 nM | < 100 nM | < 100 nM
CN[C@@H](C)C(=O)N[C@H](C(=O)N1CC[C@@H]2[C@H]1[C@@H](C(=O)Nc1ccc3ccccc3c1)CN2S(C)(=O)=O)C(C)(C)C [Example 25, 4-[3,3-Dimethyl-2-(2-methylamino-propionylamino)-butyryl]-1-methanesulfonyl-octahydro-pyrrolo[3,2-b]pyrrole-3-carboxylic acid naphthalen-2-ylamide] | < 100 nM | < 100 nM | < 100 nM
CN[C@@H](C)C(=O)N[C@H](C(=O)N1CC[C@@H]2[C@H]1[C@@H](C(=O)N[C@@H]1CCCc3ccccc31)CN2C(C)=O)C1CCCCC1 [Example 36, 1-Acetyl-4-[2-cyclohexyl-2-(2-methylamino-propionylamino)-acetyl]-octahydro-pyrrolo[3,2-b]pyrrole-3-carboxylic acid (1,2,3,4-tetrahydro-naphthalen-1-yl)-amide] | < 100 nM | < 100 nM | < 100 nM
CN[C@@H](C)C(=O)N[C@H](C(=O)N1CC[C@@H]2[C@H]1[C@@H](C(=O)Nc1cc(C)nc3ccccc13)CN2S(C)(=O)=O)C(C)(C)C [Example 48, 4-[3,3-Dimethyl-2-(2-methylamino-propionylamino)-butyryl]-1-methanesulfonyl-octahydro-pyrrolo[3,2-b]pyrrole-3-carboxylic acid (2-methyl-quinolin-4-yl)-amide] | < 100 nM | < 100 nM | < 100 nM
CN[C@@H](C)C(=O)N[C@H](C(=O)N1CC[C@@H]2[C@H]1[C@@H](C(=O)Nc1ccccc1)CN2S(C)(=O)=O)C(C)(C)C [Example 22, 4-[3,3-Dimethyl-2-(2-methylamino-propionylamino)-butyryl]-1-methanesulfonyl-octahydro-pyrrolo[3,2-b]pyrrole-3-carboxylic acid phenylamide] | < 100 nM | < 100 nM | < 100 nM

Reference: US8481495B2 (TetraLogic Pharmaceuticals Corporation, priority 2009, dated 2013)
